# Measured values as given in PMC9220351, “Evaluation of a Conformationally Constrained Indole Carboxamide as a Potential Efflux Pump Inhibitor in Pseudomonas aeruginosa” (Antibiotics, 2022).
# Tests used:
# Format in all cases: cell-based, Pseudomonas aeruginosa
# [1] = test system: 209 P. aeruginosa clinical isolates from three US hospitals; test: Susceptibility study, Micromyx panel
# From the text: First, 209 clinical isolates of P. aeruginosa were collected, unbiased of susceptibility, from three US hospitals by Micromyx (now part of Microbiologics; Kalamazoo, MI, USA). IHMA (Monthey, Switzerland) collected 300 P. aeruginosa clinical isolates, also unbiased of susceptibility, from the following 63 countries: Argentina, Australia, Belgium, Brazil, Canada, Chile, Colombia, Costa Rica, Croatia, Czech Republic, Denmark, Dominican Republic, Ecuador, France, Georgia, Germany, Greece, Guatemala, Hong Kong, Hungary, India, Ireland, Israel, Italy, Japan, Jordan, Kazakhstan, Kenya, South Korea, Kuwait, Latvia, Lebanon, Lithuania, Malaysia, Mexico, Morocco, Netherlands, New Zealand, Nigeria, Panama, Philippines, Poland, Portugal, Puerto Rico, Qatar, Romania, Russia, Saudi Arabia, Serbia, Slovenia, South Africa, Spain, Sweden, Switzerland, Taiwan, Thailand, Tunisia, Turkey, Ukraine, United Kingdom, United States, Venezuela, and Vietnam. Isolates came from the following types of infection: genitourinary (urine), gastrointestinal (stomach), gastrointestinal (pancreas), […] (wound), respiratory (sputum), […] (blood), respiratory (bronchoalveolar lavage), […] (burn), respiratory (endotracheal aspirate), bodily fluids (abscess/pus), […] (impetiginous lesions), gastrointestinal (abscess) and respiratory (bronchial brushing). CF patients were not excluded.
# (§1) MIC assays were performed as described previously.
# [2] = test system: 34 MDR P. aeruginosa clinical isolates (CDC & FDA AR Isolate Bank); test: microbe, parasite or virus in culture; details: for Levofloxacin MIC fold difference: + labelled EPI […] (TXA09155 head: 50 µg/mL); for Levofloxacin MIC: alone or + labelled EPI […] (TXA09155 head: 50 µg/mL)
# From the text: P. aeruginosa ATCC 27853 was obtained from the American Type Culture Collection (ATCC; Manassas, VA, USA). P. aeruginosa multidrug-resistant isolates were obtained from the CDC and FDA Antibiotic Resistance Isolate Bank (Atlanta, GA, USA). P. aeruginosa DA7232 (gyrA-T83I, parC-S80L) was a kind gift from Prof. Dan I. Andersson, Uppsala University, Uppsala, Sweden, and has been characterized elsewhere. P. aeruginosa strains K767 (WT), K1455 (mexAB-oprM overexpressed), K2415 (mexXY-oprM overexpressed), and K3698 (oprM∆) were obtained from Prof. Keith Poole, Queen’s University, Kingston, Ontario, Canada and have been characterized elsewhere. Bacterial cells were grown in cation-adjusted Mueller Hinton (CAMH) media, brain heart infusion broth (BHI), or tryptic soy agar (TSA) plates were all obtained from Becton, Dickinson, and Company (BD; Franklin Lakes, NJ, USA). […] Azithromycin was purchased from Tokyo Chemical Industry (Portland, OR, USA). […] Ethidium bromide (EtBr) and glucose were purchased from VWR (Radnor, PA, USA). MC-04,124 and TXA01182 were synthesized at TAXIS Pharmaceuticals. Carbonyl cyanide 3-chlorophenylhydrazone (CCCP) was purchased from Enzo Life Sciences (Farmingdale, NY, USA). DiOC2 (3) and propidium iodide were obtained from Thermo Fisher Scientific (Waltham, MA, USA).
# as §1
# [3] = test system: P. aeruginosa mutants EPIR1S, EPIR9S, EPIR20L, EPIR43; test: MIC of antimicrobials in TXA09155-resistant mutants; details: Pseudomonas aeruginosa
# Protocol: All resistant colonies were verified by determining the MIC to TXA09155. […] This two-component system regulates the expression of more than 100 genes in P. aeruginosa, including genes that code for efflux components (mexX), and plays a role in the resistance to cationic antimicrobial peptides and aminoglycoside antibiotics.
# as §1
# [4] = TXA09155 fixed […], 209 isolates
smiles,measurement,setting,value
"Cl.NC[C@@H]1CN[C@H](CNC(=O)c2cc3ccc(-c4ccc(F)cc4)cc3[nH]2)C1 [TXA09155, N-(((2S,4R)-4-(aminomethyl)pyrrolidine-2-yl)methyl)-6-(4-fluorophenyl)-1H-indole-2-carboxamide hydrochloride salt]",levofloxacin MIC50 in presence of TXA09155,[1]; [4],0.12 µg/mL
same,levofloxacin MIC90 in presence of TXA09155,[1]; [4],2 µg/mL
same,Cumulative Susceptibility % Strains at 1,"[1]; concentration 1 µg/ml, n: 209",2%
same,Cumulative Susceptibility % Strains at 2,"[1]; concentration 2 µg/ml, n: 209",2%
same,Cumulative Susceptibility % Strains at 4,"[1]; concentration 4 µg/ml, n: 209",3%
same,Cumulative Susceptibility % Strains at 8,"[1]; concentration 8 µg/ml, n: 209",6%
same,Cumulative Susceptibility % Strains at 16,"[1]; concentration 16 µg/ml, n: 209",9%
same,Cumulative Susceptibility % Strains at 32,"[1]; concentration 32 µg/ml, n: 209",36%
same,Cumulative Susceptibility % Strains at >32,"[1]; concentration >32 µg/ml, n: 209",100%
same,levofloxacin MIC50 in presence of EPI,"[2]; EPI (label) fixed […], 34 MDR isolates, levofloxacin alone 32",2 µg/mL
same,levofloxacin MIC90 in presence of EPI,"[2]; EPI (label) fixed […], 34 MDR isolates, levofloxacin alone 64",8 µg/mL
same,Levofloxacin MIC fold difference,[2]; strain AR-0229,32
same,Levofloxacin MIC,[2]; strain AR-0229,2 µg/mL
same,Levofloxacin MIC fold difference,[2]; strain AR-0230,8
same,Levofloxacin MIC,[2]; strain AR-0230,8 µg/mL
same,Levofloxacin MIC fold difference,[2]; strain AR-0231,4
same,Levofloxacin MIC,[2]; strain AR-0231,16 µg/mL
same,Levofloxacin MIC fold difference,[2]; strain AR-0232,16
same,Levofloxacin MIC,[2]; strain AR-0232,0.5 µg/mL
same,Levofloxacin MIC fold difference,[2]; strain AR-0233,32
same,Levofloxacin MIC,[2]; strain AR-0233,0.125 µg/mL
same,Levofloxacin MIC fold difference,[2]; strain AR-0234,16
same,Levofloxacin MIC,[2]; strain AR-0234,0.5 µg/mL
same,Levofloxacin MIC fold difference,[2]; strain AR-0236,8
same,Levofloxacin MIC,[2]; strain AR-0236,4 µg/mL
same,Levofloxacin MIC fold difference,[2]; strain AR-0239,16
same,Levofloxacin MIC,[2]; strain AR-0239,4 µg/mL
same,Levofloxacin MIC fold difference,[2]; strain AR-0240,16
same,Levofloxacin MIC,[2]; strain AR-0240,8 µg/mL
same,Levofloxacin MIC fold difference,[2]; strain AR-0241,8
same,Levofloxacin MIC,[2]; strain AR-0241,8 µg/mL
same,Levofloxacin MIC fold difference,[2]; strain AR-0242,16
same,Levofloxacin MIC,[2]; strain AR-0242,1 µg/mL
same,Levofloxacin MIC fold difference,[2]; strain AR-0244,64
same,Levofloxacin MIC,[2]; strain AR-0244,2 µg/mL
same,Levofloxacin MIC fold difference,[2]; strain AR-0245,8
same,Levofloxacin MIC,[2]; strain AR-0245,16 µg/mL
same,Levofloxacin MIC fold difference,[2]; strain AR-0246,8
same,Levofloxacin MIC,[2]; strain AR-0246,8 µg/mL
same,Levofloxacin MIC fold difference,[2]; strain AR-0247,256
same,Levofloxacin MIC,[2]; strain AR-0247,≤ 0.008 µg/mL
same,Levofloxacin MIC fold difference,[2]; strain AR-0248,32
same,Levofloxacin MIC,[2]; strain AR-0248,0.5 µg/mL
same,Levofloxacin MIC fold difference,[2]; strain AR-0249,32
same,Levofloxacin MIC,[2]; strain AR-0249,2 µg/mL
same,Levofloxacin MIC fold difference,[2]; strain AR-0250,8
same,Levofloxacin MIC,[2]; strain AR-0250,8 µg/mL
same,Levofloxacin MIC fold difference,[2]; strain AR-0252,64
same,Levofloxacin MIC,[2]; strain AR-0252,0.5 µg/mL
same,Levofloxacin MIC fold difference,[2]; strain AR-0253,64
same,Levofloxacin MIC,[2]; strain AR-0253,0.031 µg/mL
same,Levofloxacin MIC fold difference,[2]; strain AR-0256,16
same,Levofloxacin MIC,[2]; strain AR-0256,0.031 µg/mL
same,Levofloxacin MIC fold difference,[2]; strain AR-0258,8
same,Levofloxacin MIC,[2]; strain AR-0258,0.062 µg/mL
same,Levofloxacin MIC fold difference,[2]; strain AR-0259,8
same,Levofloxacin MIC,[2]; strain AR-0259,0.062 µg/mL
same,Levofloxacin MIC fold difference,[2]; strain AR-0260,8
same,Levofloxacin MIC,[2]; strain AR-0260,8 µg/mL
same,Levofloxacin MIC fold difference,[2]; strain AR-0261,32
same,Levofloxacin MIC,[2]; strain AR-0261,0.25 µg/mL
same,Levofloxacin MIC fold difference,[2]; strain AR-0262,64
same,Levofloxacin MIC,[2]; strain AR-0262,0.063 µg/mL
same,Levofloxacin MIC fold difference,[2]; strain AR-0264,32
same,Levofloxacin MIC,[2]; strain AR-0264,1 µg/mL
same,Levofloxacin MIC fold difference,[2]; strain AR-0265,16
same,Levofloxacin MIC,[2]; strain AR-0265,4 µg/mL
same,Levofloxacin MIC fold difference,[2]; strain AR-0266,16
same,Levofloxacin MIC,[2]; strain AR-0266,2 µg/mL
same,Levofloxacin MIC fold difference,[2]; strain AR-0267,64
same,Levofloxacin MIC,[2]; strain AR-0267,0.5 µg/mL
same,Levofloxacin MIC fold difference,[2]; strain AR-0269,16
same,Levofloxacin MIC,[2]; strain AR-0269,2 µg/mL
same,Levofloxacin MIC fold difference,[2]; strain AR-0270,64
same,Levofloxacin MIC,[2]; strain AR-0270,0.5 µg/mL
same,Levofloxacin MIC fold difference,[2]; strain AR-0271,8
same,Levofloxacin MIC,[2]; strain AR-0271,4 µg/mL
same,Levofloxacin MIC fold difference,[2]; strain AR-0272,8
same,Levofloxacin MIC,[2]; strain AR-0272,2 µg/mL
same,MIC,[3]; strain EPIR1S (phoQ-L175R),200 µg/mL
same,MIC,[3]; strain EPIR9S (phoQ-L175R),100 µg/mL
same,MIC,[3]; strain EPIR20L (phoQ-H248D),200 µg/mL
